Test results published in patent EP2354120A1, “Synthesis of acyloxyalkyl carbamate prodrugs and intermediates thereof” (XenoPort, Inc., priority 2003, dated 2005).
Like-named read-outs stand apart in the source and are kept apart here. One block for each molecule: values may come before it.

Tests used:
Caco-2 cells = details: human, Caco-2, 200 uM
Description: Caco-2 cells obtained from continuous culture (passage less than 28) were seeded at high density onto Transwell polycarbonate filters. […] Inserts were placed in 12 or 24 well plates containing buffer and incubated for 30 min at 37C°. Prodrug (200 µM) was added to the apical or basolateral compartment (donor) and concentrations of prodrug and/or released parent drug in the opposite compartment (receiver) were determined at intervals over 1 hour using LC/MS/MS. Values of apparent permeability (Papp) were calculated using the equation: Papp = Vr (dC/dt)//(ACo) [formula]
Here Vr is the volume of the receiver compartment in mL; dC/dt is the total flux of prodrug and parent drug (µM/s), determined from the slope of the plot of concentration in the receiver compartment versus time; Co is the initial concentration of prodrug in µM; A is the surface area of the membrane in cm^2.

pancreatin = type: in vitro ADME, porcine; details: 5 µM
From the text: The reaction was stopped by addition of 2 volumes of methanol.

[1] = type: physicochemical; details: after 60 min
Description: The chemical stability of prodrugs in aqueous buffers at pH's of 2.0, 7.4 and 8.0 were also measured. […] Each preparation was incubated with test compound at 37°C for one hour. Aliquots (50 µL) were removed at 0, 30, and 60 min and quenched with 0.1% trifluoroacetic acid in acetonitrile. Samples were then centrifuged and analyzed by LC/MS/MS (see Example 86 below for method details).

[2] = type: in vitro ADME; details: Human Liver S9 (0.5 mg/mL), 2.0 µM, NADPH, 37°C, after 60 min
Description: (§1) The stabilities of prodrugs were evaluated in one or more in vitro systems using a variety of tissue preparations following methods known in the art. […] Tissues were obtained from commercial sources (e.g., Pel-Freez Biologicals, Rogers, AR, or GenTest Corporation, Woburn, MA). […] Each preparation was incubated with test compound at 37°C for one hour. Aliquots (50 µL) were removed at 0, 30, and 60 min and quenched with 0.1% trifluoroacetic acid in acetonitrile. Samples were then centrifuged and analyzed by LC/MS/MS (see Example 86 below for method details). […] After centrifugation at 14,000 rpm for 10 min, the supernatant was removed and analyzed by LC/MS/MS. • Caco-2 Homogenate S9 Stability: Caco-2 cells were grown for 21 days prior to harvesting. Culture medium was removed and cell monolayers were rinsed and scraped off into ice-cold 10 mM sodium phosphate/0.15 M potassium chloride, pH 7.4. Cells were lysed by sonication at 4°C using a probe sonicator. Lysed cells were then transferred into 1.5 mL centrifuge vials and centrifuged at 9000 g for 20 min at 4°C. […]
(§2) For stability studies, prodrug (5 µM) was incubated in Caco-2 homogenate S9 fraction (0.5 mg protein per mL) for 60 min at 37°C. Concentrations of intact prodrug and released baclofen were determined at zero time and 60 minutes using LC/MS/MS.

[3] = type: in vitro ADME; details: Caco-2 S9 (0.5 mg protein per mL), 5 µM, 37°C, after 60 min
Description: as §1, §2

[4] = type: in vitro ADME; details: Human Plasma, 2.0 µM, 37°C, after 60 min
Description: as §1, §2

[5] = type: in vitro ADME; details: Rat Liver S9 (0.5 mg/mL), 2.0 µM, NADPH, 37°C, after 60 min
Description: as §1, §2

[6] = type: in vitro ADME; details: Rat Plasma, 2.0 µM, 37°C, after 60 min
Description: as §1, §2

[7] = oral; 2 mg t.i.d R-baclofen equivalent to 10 mg t.i.d. racemic baclofen; cited from earlier work
[8] = 1 % (w/v) pancreatin, pH 7.5, 37 °C, after 60 min

Compound: CC(=O)OCOC(=O)NC[C@H](CC(=O)[O-])c1ccc(Cl)cc1.[Na+] [(10), Sodium 4-[(Acetoxymethoxy)carbonylamino]-(3R)-(4-chlorophenyl)-butanoate]
- Ratio A-B/B-A (Caco-2 cells): 1.2

- Ratio A-B/B-A (Caco-2 cells): 5.9
Compound: O=C([O-])C[C@@H](CNC(=O)OCOC(=O)c1ccccc1)c1ccc(Cl)cc1.[Na+] [(12)]

- Ratio A-B/B-A (Caco-2 cells): 4.1
- % of Baclofen Released (pancreatin; [8]): 101%
- % of Prodrug Remaining (pancreatin; [8]): 2%
Compound: O=C(O)C[C@@H](CNC(=O)OCOC(=O)C1CCCCC1)c1ccc(Cl)cc1 [(14), Sodium 4-[(Cyclohexanecarboxymethoxy)carbonylaminol-(3R)-(4-chlorophenyl)-butanoate]

Compound: CCCC(=O)OCOC(=O)NC[C@H](CC(=O)O)c1ccc(Cl)cc1 [(16), Sodium 4-[(Butanoyloxymethoxy)carbonylamino]-(3R)-(4-chlorophenyl)-butanoate]
- % of Baclofen Released (pancreatin; pig, pancreatin, 1 h, pH 7.5): 84%
- % of Prodrug Remaining (pancreatin; pig, pancreatin, 1 h, pH 7.5): 1%

Compound: CC(C)C(=O)OCOC(=O)NC[C@H](CC(=O)O)c1ccc(Cl)cc1 [(18), Sodium 4-[(Isobutanoyloxymethoxy)carbonylamino]-(3R)-(4-chlorophenyl)-butanoate]
- % of Baclofen Released (pancreatin; pig, pancreatin, 1 h, pH 7.5): 91%
- % of Prodrug Remaining (pancreatin; pig, pancreatin, 1 h, pH 7.5): 2%

Compound: CCCC(=O)OC(OC(=O)NC[C@H](CC(=O)O)c1ccc(Cl)cc1)C(C)C (stereo partly drawn) [(27), Sodium 4-[(1-Butanoyloxyisobutoxy)carbonylamino]-(3R)-(4-chlorophenyl)-butanoate]
- Ratio A-B/B-A (Caco-2 cells): 6.9
- % of Baclofen Released (pancreatin; [8]): 9%
- % of Prodrug Remaining (pancreatin; [8]): 71%

Compound: CC(=O)OC(C)OC(=O)NC[C@H](CC(=O)O)c1ccc(Cl)cc1 (stereo partly drawn) [(30), Sodium 4-[(1-Acetoxyethoxy)carbonylamino]-(3R)-(4-chlorophenyl)-butanoate]
- % of Baclofen Released (pancreatin; pig, pancreatin, 1 h, pH 7.5): 9%
- % of Prodrug Remaining (pancreatin; pig, pancreatin, 1 h, pH 7.5): 90%

Compound: CCCC(=O)OC(C)OC(=O)NC[C@H](CC(=O)[O-])c1ccc(Cl)cc1.[Na+] (stereo partly drawn) [(32), Sodium 4-[(1-Butanoyloxyethoxy)carbonylamino]-(3R)-(4-chlorophenyl)-butanoate]
- Ratio A-B/B-A (Caco-2 cells): 7.6

- Ratio A-B/B-A (Caco-2 cells): 1.1
Compound: CC(OC(=O)NC[C@H](CC(=O)O)c1ccc(Cl)cc1)OC(=O)C1CCCCC1 (stereo partly drawn) [(38), Sodium 4-[(1-Cyclohexylcarbonyloxyethoxy)carbonylamino]-(3R)-(4-chlorophenyl)-butanoate]

- % of Baclofen Released ([1]; aqueous buffer pH 2.0, 37°C): 0%
- % of Prodrug Remaining ([1]; aqueous buffer pH 2.0, 37°C): 103%
- % of Baclofen Released ([1]; aqueous buffer pH 7.4, 37°C): 0%
- % of Prodrug Remaining ([1]; aqueous buffer pH 7.4, 37°C): 100%
- % of Baclofen Released ([1]; aqueous buffer pH 8.0, 37°C): 2%
- % of Prodrug Remaining ([1]; aqueous buffer pH 8.0, 37°C): 107%
- % of Baclofen Released [2]: 105%
- % of Prodrug Remaining [2]: 1%
- % of Baclofen Released [3]: 85%
- % of Prodrug Remaining [3]: 15%
- % of Baclofen Released [4]: 2%
- % of Prodrug Remaining [4]: 101%
- % of Baclofen Released [5]: 96%
- % of Prodrug Remaining [5]: 8%
- % of Baclofen Released (pancreatin; pig, pancreatin, 1 h, pH 7.5): 58%
- % of Prodrug Remaining (pancreatin; pig, pancreatin, 1 h, pH 7.5): 43%
- % of Baclofen Released [6]: 17%
- % of Prodrug Remaining [6]: 72%
Compound: CC(OC(=O)NC[C@H](CC(=O)[O-])c1ccc(Cl)cc1)OC(=O)c1ccccc1.[Na+] (some centres unmarked) [(40)]

Compound: CC(C)C(OC(=O)NC[C@H](CC(=O)O)c1ccc(Cl)cc1)OC(=O)C(C)(C)C (stereo partly drawn) [(43), Sodium 4-[(1-Pivaloyloxyisobutoxy)carbonylamino]-(3R)-(4-chlorophenyl)-butanoate]
- Ratio A-B/B-A (Caco-2 cells): 2.3
- % of Baclofen Released (pancreatin; [8]): 4%
- % of Prodrug Remaining (pancreatin; [8]): 82%

Compound: CCC(=O)OC(OC(=O)NC[C@H](CC(=O)[O-])c1ccc(Cl)cc1)C(C)C.[Na+] (stereo partly drawn) [(48), Sodium 4-[(1-Propanoyloxyisobutoxy)carbonylamino]-(3R)-(4-chlorophenyl)-butanoate]
- Ratio A-B/B-A (Caco-2 cells): 6.5

- Ratio A-B/B-A (Caco-2 cells): 3.0
Compound: CCOC(C)(OCC)C(=O)OCOC(=O)NC[C@H](CC(=O)[O-])c1ccc(Cl)cc1.[Na+] [(51), Sodium 4-[(2,2-Diethoxypropanoyloxymethoxy)carbonylamino]-(3R)-(4-chlorophenyl)-butanoate]

- Ratio A-B/B-A (Caco-2 cells): 2.4
Compound: COc1ccc(C(=O)OCOC(=O)NC[C@H](CC(=O)[O-])c2ccc(Cl)cc2)cc1.[Na+] [(53), Sodium 4-[(4-Methoxybenzoloxymethoxy)carbonylamino]-(3R)-(4-chlorophenyl)-butan oate]

- % of Baclofen Released (pancreatin; [8]): 79%
- % of Prodrug Remaining (pancreatin; [8]): 1%
Compound: O=C(O)C[C@@H](CNC(=O)OCOC(=O)CCc1ccccc1)c1ccc(Cl)cc1 [(62), Sodium 4-[(3-Phenylpropionoyloxymethoxy)carbonylamino]-(3R)-(4-chlorophenyl)-butanoate]

Compound: CCCC(OC(=O)NC[C@H](CC(=O)[O-])c1ccc(Cl)cc1)OC(=O)c1ccccc1.[Na+] (stereo partly drawn) [(71), Sodium 4-[(1-Benzoyloxybutoxy)carbonylamino]-(3R)-(4-chlorophenyl)-butanoate]
- Ratio A-B/B-A (Caco-2 cells): 7.1

Compound: CCCC(OC(=O)NC[C@H](CC(=O)[O-])c1ccc(Cl)cc1)OC(=O)C(C)C.[Na+] (stereo partly drawn) [(72), Sodium 4-[(1-Isobutanoyloxybutoxy)carbonylamino]-(3R)-(4-chlorophenyl)-butanoate]
- Ratio A-B/B-A (Caco-2 cells): 3.5

Compound: CCCC(=O)OC(CCC)OC(=O)NC[C@H](CC(=O)[O-])c1ccc(Cl)cc1.[Na+] (stereo partly drawn) [(73), Sodium 4-[(1-Butanoyloxybutoxy)carbonylamino]-(3R)-(4-chlorophenyl)-butanoate]
- Ratio A-B/B-A (Caco-2 cells): 3.2

Compound: CCCC(=O)OC(CC)OC(=O)NC[C@H](CC(=O)[O-])c1ccc(Cl)cc1.[Na+] (stereo partly drawn) [(78), Sodium 4-[(1-Butanoyloxypropoxy)carbonylamino]-(3R)-(4-chlorophenyl)-butanoate]
- Ratio A-B/B-A (Caco-2 cells): 7.9

Compound: CCCC(=O)O[C@H](CCC)OC(=O)NC[C@H](CC(=O)O)c1ccc(Cl)cc1 [(86), Sodium 4-{[(1S)-Butanoyloxybutoxy]carbonylamino}-(3R)-(4-chlorophenyl)-butanoate]
- % of Baclofen Released (pancreatin; [8]): 76%
- % of Prodrug Remaining (pancreatin; [8]): 4%

Compound: CCCC(=O)O[C@H](OC(=O)NC[C@H](CC(=O)O)c1ccc(Cl)cc1)C(C)C [(90), Sodium 4-{[(1R)-Butanoyloxyisobutoxy]carbonylamino}-(3R)-(4-chlorophenyl)-butanoate]
- % of Baclofen Released (pancreatin; [8]): 68%
- % of Prodrug Remaining (pancreatin; [8]): 9%

Compound: CC(C)C(=O)O[C@@H](OC(=O)NC[C@H](CC(=O)O)c1ccc(Cl)cc1)C(C)C [(104), 4-{[(1S)-Isobutanoyloxyisobutoxy]carbonylamino}-(3R)-(4-chlorophenyl) -butanoic Acid]
- % of Baclofen Released (pancreatin; 1 % (w/v) pancreatin, pH 7.5, 37 °C, after 60 min, 60 min): 6%
- % of Prodrug Remaining (pancreatin; pig, pancreatin, 1 h, pH 7.5): 90%

Compound: NC[C@H](CC(=O)O)c1ccc(Cl)cc1 [R-baclofen, R-(-)-baclofen]
- potency relative to orally administered racemic baclofen [7]: about 5 fold
